Source: US9169241B2, “Quinolinyloxyphenylsulfonamides” (Max-Planck-Gesellschaft Zur Forderung der Wissenschaften …, priority 2009, dated 2015)
Where two headings read alike, the source gives them in different places.

Columns and labels:
Assay type in all cases: cell-based
C8161 = assay: Apoptosis assay (Cellomics, nucleus condensation); settings: Homo sapiens, Table III, read-out: Apoptosis induction in C8161
In short: (§1)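 Cells seeded at 5000 per well were stained live with Hoechst 33342, and nuclear condensation was quantified per nucleus by automated fluorescence imaging alongside cell counts. Compound was tested at 12.5, 6.25, 3.125, 1.56, 0.78 and 0.39 μM against a DMSO control, with reads at 24 h and 48 h.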

SF763 = assay: Apoptosis assay (Cellomics, nucleus condensation); settings: Table III, read-out: Apoptosis induction in SF763
In short: as §1

U138 = assay: Apoptosis assay (Cellomics, nucleus condensation); settings: Table III, read-out: Apoptosis induction in U138
In short: as §1

viable cells in culture = assay: Cell viability assay at 10 μM (CellTiter-Glo, Table VII); settings: compound 10 μM, 72 h;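 further: graded A 0-20%; B 21-40%; C 41-60%; D over 60% viable cells relative to DMSO control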
In short: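 Cells were seeded at 1000 cells/well in 96-well plates in 100 μl culture medium and incubated for 72 h with 10 μM compound or a DMSO control. ATP content, which reflects metabolically active and therefore viable cells, was then determined by CellTiter-Glo luminescence (Promega) per the manufacturer's instructions and expressed relative to the DMSO control.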

[1] = Homo sapiens, HCT-116, HCT116 def, read-out: percentage (%) of viable cells HCT 116def
[2] = Homo sapiens, HCT-116, HCT116 wt, read-out: percentage (%) of viable cells HCT 116wt
[3] = Homo sapiens, HT-29, HT29, read-out: percentage (%) of viable cells HT29
[4] = Homo sapiens, NCI-H358, H358, read-out: percentage (%) of viable cells H358
[5] = Homo sapiens, NCI-H1650, H1650, read-out: percentage (%) of viable cells H1650
[6] = Homo sapiens, NCI-H1666, H1666, read-out: percentage (%) of viable cells H1666
[7] = Homo sapiens, NCI-H1975, H1975, read-out: percentage (%) of viable cells H1975
[8] = Homo sapiens, NCI-H1993, H1993, read-out: percentage (%) of viable cells H1993
[9] = Homo sapiens, A549, read-out: percentage (%) of viable cells A549
[10] = Homo sapiens, HCC827, read-out: percentage (%) of viable cells HCC827
[11] = Homo sapiens, SW480, read-out: percentage (%) of viable cells SW480
[12] = RKO, read-out: percentage (%) of viable cells RKO

Row | SMILES | IC50 (C8161) [µM] | IC50 (SF763) [µM] | IC50 (U138) [µM] | viability at 10 µM (viable cells in culture; [1]) [%] | viability at 10 µM (viable cells in culture; [2]) [%] | viability at 10 µM (viable cells in culture; [3]) [%] | viability at 10 µM (viable cells in culture; [4]) [%] | viability at 10 µM (viable cells in culture; [5]) [%] | viability at 10 µM (viable cells in culture; [6]) [%] | viability at 10 µM (viable cells in culture; [7]) [%] | viability at 10 µM (viable cells in culture; [8]) [%] | viability at 10 µM (viable cells in culture; [9]) [%] | viability at 10 µM (viable cells in culture; [10]) [%] | viability at 10 µM (viable cells in culture; [11]) [%] | viability at 10 µM (viable cells in culture; [12]) [%]
1 | COc1cc2c(Oc3ccc(NS(=O)(=O)c4ccc(C)c(F)c4)cc3F)ccnc2cc1OCCCN1CCCC(C)C1 (stereo not drawn) [Example 56, 3-Fluoro-N-(3-fluoro-4-{6-methoxy-7-[3-(3-methyl-piperidin-1-yl)-propoxy]-quinolin-4-yloxy}-phenyl)-4-methyl-benzenesulfonamide] | ≤ 12.5 | ≤ 12.5 | ≤ 12.5 | 21 to 40 | 21 to 40 | 0 to 20 | 0 to 20 | 41 to 60 | 21 to 40 | 0 to 20 | 41 to 60 | > 60 | 21 to 40 | 0 to 20 | 21 to 40
2 | COc1cc2c(Oc3ccc(NS(=O)(=O)c4cc(Cl)cc(Cl)c4OC)cc3F)ccnc2cc1OCCCN1CCCCC1 [Example 34, 3,5-Dichloro-N-{3-fluoro-4-[6-methoxy-7-(3-piperidin-1-yl-propoxy)-quinolin-4-yloxy]-phenyl}-2-methoxy-benzenesulfonamide] | ≤ 12.5 | ≤ 12.5 | ≤ 12.5 | 21 to 40 | 0 to 20 | 21 to 40 | 0 to 20 | 21 to 40 | 21 to 40 | 0 to 20 | 0 to 20 | > 60 | > 60 | 0 to 20 | 0 to 20
3 | COc1cc2c(Oc3ccc(NS(=O)(=O)c4ccccc4OC(F)(F)F)cc3F)ccnc2cc1OCCCN1CCN(C)CC1 [Example 25, N-(3-Fluoro-4-{6-methoxy-7-[3-(4-methyl-piperazin-1-yl)-propoxy]-quinolin-4-yloxy}-phenyl)-2-trifluoromethoxy-benzenesulfonamide] | ≤ 12.5 | ≤ 12.5 | ≤ 12.5 |  |  |  |  |  |  |  |  |  |  |  | 

Continued, in another order:

Row | IC50 (C8161) [µM] | IC50 (SF763) [µM] | IC50 (U138) [µM] | SMILES | viability at 10 µM (viable cells in culture; [1]) [%] | viability at 10 µM (viable cells in culture; [2]) [%] | viability at 10 µM (viable cells in culture; [3]) [%] | viability at 10 µM (viable cells in culture; [4]) [%] | viability at 10 µM (viable cells in culture; [5]) [%] | viability at 10 µM (viable cells in culture; [6]) [%] | viability at 10 µM (viable cells in culture; [7]) [%] | viability at 10 µM (viable cells in culture; [8]) [%] | viability at 10 µM (viable cells in culture; [9]) [%] | viability at 10 µM (viable cells in culture; [10]) [%] | viability at 10 µM (viable cells in culture; [11]) [%] | viability at 10 µM (viable cells in culture; [12]) [%]
4 | ≤ 12.5 | ≤ 12.5 | ≤ 12.5 | COc1cc2c(Oc3ccc(NS(=O)(=O)c4cccc(C)c4)cc3F)ccnc2cc1OCCCN1CCCC(C)C1 (stereo not drawn) [Example 70, N-(3-Fluoro-4-{6-methoxy-7-[3-(3-methyl-piperidin-1-yl)-propoxy]-quinolin-4-yloxy}-phenyl)-3-methyl-benzenesulfonamide] | 21 to 40 | 41 to 60 | 21 to 40 | 21 to 40 | 41 to 60 | 21 to 40 | 0 to 20 | 0 to 20 | 21 to 40 | 21 to 40 | 21 to 40 | 0 to 20
5 | ≤ 12.5 | ≤ 12.5 | 12.5 to 50 | COc1cc2c(Oc3ccc(NS(=O)(=O)c4ccccc4[N+](=O)[O-])cc3F)ccnc2cc1OCCCN1CCN(C)CC1 [Example 21, N-(3-Fluoro-4-{6-methoxy-7-[3-(4-methyl-piperazin-1-yl)-propoxy]-quinolin-4-yloxy}-phenyl)-2-nitro-benzenesulfonamide] | 41 to 60 | > 60 | 21 to 40 | 21 to 40 | 41 to 60 | 41 to 60 | 41 to 60 | 21 to 40 | > 60 | > 60 | 21 to 40 | 41 to 60
